Tests used:
[1] = Fatigue resistance under alternated UV/vis irradiation cycles; type: physicochemical; conditions: alternated UV (370 nm) and visible irradiation cycles, aqueous media
Text: Figure 2 (Left) Absorption spectra and (right) fatigue resistance of 1 under alternated 370/485 nm irradiations in Tris buffer/DMSO 95:5 at rt: E-1 (black line), PSS370 (blue line), PSS485 (red line). Irradiation conditions at 370 nm: 12.8 mW·cm^−2, 20 s; at 485 nm: 1.5 mW·cm^−2, 480 s.
General procedure for the fatigue resistance measurements
Starting from a solution of compound containing 100% of the E-isomer, the solution was irradiated sequentially at 370 nm and at 485 nm or 438 nm. The absorbance was measured before and after each illumination realized with constant optical length distance. The sequence, which constitutes a cycle, was repeated for a minimum of 10 times.
Fatigue resistance of the compound 2
Figure S15: Left: absorption spectra of E-2 (black line), PSS370 (blue line), PSS438 (red line) in Tris buffer/ DMSO (9/1); Right: Fatigue resistance followed by the absorption band at 3 21 nm under alternate 3 70 nm/438 nm irradiation cycles in Tris buffer/DMSO (9/1). Irradiation conditions: 40 s at P 370 = 14.1 mW cm-2 and 180 s at P 438 […]
Fatigue resistance of the compound 3
Figure S16: Left: absorption spectra of E-3 (black line), PSS 370 (blue line), PSS 485 (red line) in Tris buffer/DMSO (9/1); Right: Fatigue resistance followed by the absorption band at 3 64 nm under alternate 3 70 nm/485 nm irradiation cycles in Tris buffer/DMSO (9/1). […]

[2] = Photostationary state composition (E/Z ratios) by 1H NMR and UV–vis after irradiation; type: physicochemical; conditions: for Z/E PSS370: after 370 nm irradiation; for E/Z PSS485: after 485 nm irradiation; for E-isomer mixed with the Z-isomer as established by PSS370: Z-isomer samples used for ITC
Experimental: General experimental details. Commercially available solvents and reagents were used without further purification. Reactions carried out under anhydrous conditions are performed under argon in glassware previously dried in an oven. DMF and THF were previously dried through alumina or molecular sieves-containing cartridges using a solvent purificator MBRAUN SPS-800. All the reactions with azobenzene-containing substrates were carried out in the dark. Reactions were monitored by TLC on Silica Gel 60F-254 plates with detection by UV (254 nm or 365 nm) or by spraying with 10% H2SO4 in EtOH and heating about 30 s at 400–600 °C. Column chromatography purification was performed on CombiFlash® Rf+ and RediSep® RF or RF Gold normal phase silica columns (with UV detection at 254 and 350 nm for all azobenzene derivatives), or by flash column chromatography employing silica gel (60 Å pore size, 40–63 µm). ^1H and ^13C NMR spectra were recorded on a JEOL ECS-400 spectrometer or on Bruker Avance 300 and 400 spectrometers. Structural assignments were made with additional information from gCOSY, HMBC, and gHMQC experiments. High-resolution mass spectra (HRMS) were performed on a Bruker maXis mass spectrometer by the SALSA platform from ICOA laboratory or on an Agilent 1260 Infinity system with a quadrupole time-of-light (Q-TOF) mass analyzer. Melting points were measured with a Köfler bench previously calibrated using the usual standard references or on a digital melting point capillary apparatus. Specific optical rotations were measured in solution using sodium light at 589 nm where no absorption occurred for all compounds. Absorption spectra were recorded on a Cary-5000 spectrophotometer from Agilent Technologies. Photochromic reactions were induced in situ by a continuous irradiation Hg/Xe lamp (Hamamatsu, LC6- or LC8-Lightningcure, 200 W) equipped with narrow band interference filters of appropriate wavelengths: Semrock BP-370/36 for λirr = 370 nm, Semrock FF01-438/24-25 for λirr = 438 nm, Semrock FF01-485/20-25 for λirr = 485 nm. The irradiation power was measured using a photodiode from Ophir (PD300-UV) and corrected after a measurement with an additional Schott long pass filter (LP-545) to measure NIR contribution (PLP) that is let through the Semrock filter (PTotal), considering a 90% transmittance: Pλirr = PTotal − (10/9 × PLP). The photoconversion reaction was followed by a combination of ^1H NMR and UV–vis absorption spectra, realized by successive irradiations at 370 nm (438 or 485 nm). The E/Z ratios were determined by integration of the azobenzene proton signals of each isomer. A quartz cell of 10 mm path length has been used for solution measurement.
The photoconversion yields were measured from a solution of the compounds in deuterated solvent and monitored by ^1H NMR and UV–vis absorption, after successive irradiations at 370 nm (438 nm or 485 nm) in the case of the PSS. The E/Z ratios were determined by integration of characteristic of each isomer.

LecA [3] = biological target: T1, LecA (Pseudomonas aeruginosa, UniProt Q05097); assay: Isothermal titration calorimetry (ITC) of ligand binding to LecA; conditions: ITC Kd, E-isomer the better binder
T1 construct: LecA was expressed and purified as previously described; made in house
T1 sequence (Q05097 whole entry): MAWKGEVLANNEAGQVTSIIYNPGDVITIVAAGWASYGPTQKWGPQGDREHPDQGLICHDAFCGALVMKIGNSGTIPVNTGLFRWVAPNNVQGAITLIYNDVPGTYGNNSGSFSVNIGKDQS
Text: The interaction of compounds 1–5 with LecA was characterized by ITC analysis for both the E- and Z-isomers. As the initial isomer state of the galactosyl azobenzenes is the E-form, ITC measurements made on E-isomers correspond to 100% purity of them. After 370 nm irradiation to induce the photoizomerisation process, a photostationary state is reached between E- and Z-isomers. For ITC measurements made on Z-isomers, the percentage of isomers is shown in the column Z/E (PSS370) of Table 1. Depending on the corresponding galactosyl azobenzenes, the Z-isomer is pure from 87 to 99%. Spectroscopy measurements were performed on ligand solution just before each experiment to check the efficiency of the isomerization, with results as indicated in Table 2.
Isothermal titration calorimetry: LecA was expressed and purified as previously described. All experiments were performed at 25 °C with an ITC200 isothermal titration calorimeter (Microcal-Malvern Panalytical, Grenoble, France). The lyophilized LecA protein was dissolved in a buffer composed of 20 mM Tris^.HCl (pH 7.5), 100 mM NaCl and 100 μM CaCl2 with 5% or 10% DMSO final. All compounds were first dissolved in DMSO then in same buffer for a final concentration of 5% or 10% DMSO. […]

[4] = Thermal Z→E isomerization tracked by UV–vis absorption (half-life of Z-isomers); type: physicochemical; conditions: Tris buffer with 5% DMSO, pH 7.5, solvent not given; read-out: t1/2 (thermostability of Z-isomer) (converted)
Text: The photoswitching properties of galactosyl azobenzenes 1–5 were realized in water or in Tris buffer containing 5 to 10% DMSO, in accordance with the biophysical evaluation conditions by using ITC. All these compounds undergo reversible photoisomerization under UV–vis irradiation in aqueous solution. […] After irradiation at 370 nm to induce the E-to-Z photoisomerization, the band at 353 nm decreases concomitantly to the appearance of two new bands at 312 and 438 nm (Figure 2, blue line). Two isosbestic points can also be observed at 310 and 429 nm. The back Z→E photoisomerization can be achieved by illumination at 485 nm (Figure 2, red line). ^1H NMR spectroscopy has been used to determine the Z/E ratios during irradiation, showing an excellent photoconversion yield of Z/E = 99:1 at PSS370, and E/Z = 87:13 at PSS485 in D2O/5% DMSO (Figure 3). […] All the photophysical properties of compounds 1–5 are summarized in Table 1 (spectra are shown in Figure S1–S24 in Supporting Information File 1). Concerning the meta-substituted azobenzene 2, a 30 nm blue shift is observed for the π→π* transition (λmax = 321 nm) as well as a lower absorption coefficient compared to the para-derivative 1 (Table 1, entries 3 and 4 vs entries 1 and 2), probably due to less-conjugated azobenzene. […]
The half-lif e o f Z -1 at roo m temperatur e wa s the n calculated: […]

LecA [5] = biological target: T1, LecA; conditions: ref [5]–[8][32]; cited from earlier work

Compound	Z/E PSS370 ([2]; H2O)	E/Z PSS485 ([2]; H2O)	Z/E PSS370 ([2]; Tris/DMSO 5%)	E/Z PSS485 ([2]; Tris/DMSO 5%)	difference in affinity between E- and Z-isomers (LecA [3]) [fold]	Z/E PSS370 ([2]; Tris/DMSO 10%)	E-isomer mixed with the Z-isomer as established by PSS370 [2] [%]	E/Z PSS485 ([2]; Tris/DMSO 10%)	further results
NCCOc1ccc(/N=N/c2ccc(O[C@@H]3O[C@H](CO)[C@H](O)[C@H](O)[C@H]3O)cc2)cc1 [compound 1]	99/1	87/13	99/1	87/13	3				fatigue resistance [1]: no degradation has been observed after more than 10 UV–vis irradiation cycles
NCCOc1cccc(/N=N/c2cccc(O[C@@H]3O[C@H](CO)[C@H](O)[C@H](O)[C@H]3O)c2)c1 [compound 2]			87/13	71/29		87/13	13		E/Z PSS438 ([2]; Tris/DMSO 10%, after 438 nm irradiation (footnote d)): 74/26^d; half-life [4]: 29 days
NCCOc1ccc(/N=N/c2ccc(S[C@@H]3O[C@H](CO)[C@H](O)[C@H](O)[C@H]3O)cc2)cc1 [compound 3]	99/1	73/27			2	99/1		71/29	
NCCOc1ccc(/N=N/c2cccc(S[C@@H]3O[C@H](CO)[C@H](O)[C@H](O)[C@H]3O)c2)cc1 [compound 4]						99/1		72/28	
NCCOc1ccc(/N=N/c2ccccc2S[C@@H]2O[C@H](CO)[C@H](O)[C@H](O)[C@H]2O)cc1 [compound 5]						92/8	8	60/40	
O=C[C@H](O)[C@@H](O)[C@@H](O)[C@H](O)CO [ᴅ-galactose]									Kd (LecA [5]): 34 µM

From publication PMC11228623, “Photoswitchable glycoligands targeting Pseudomonas aeruginosa LecA” (Beilstein Journal of Organic Chemistry, 2024)
